The test system of assay [1] is HeLa human cervical tumor cells. Briefly: Proliferation assay (HeLa cell line). The assay is classed as cell-based. As to conditions: 96 h, 4 days incubation, crystal violet, read-out: Biological Assay 2: Proliferation assay (HeLa cell line) median IC50.
The target in assay [2] is T1, catalytic domain of human Bub1 (amino acids 704-1085) (Homo sapiens, UniProt O43683).
T1 construct: catalytic domain of human Bub1 (amino acids 704-1085); His6 (N); made in house; host or cells: Hi5 insect cells
Briefly: Equilibrium probe competition assay (TR-FRET kinase binding assay). As to conditions: read-out: Assay 5 IC50. As for the experimental part:
The half-life of prodrugs (Table 3) poses a challenge for the verification of their biological activity. The Bub1 enzymatic activity assay (as per Biological Assay 1.0 infra) requires a minimum reaction time of 60 minutes in order to be able to assess the inhibitory activity of the compounds. During this time typically 20% to 60% of the prodrugs have been already converted to their corresponding drugs at the pH of 7.5 at which the assay is performed. Ideally one would perform the biological assay at a pH at which the prodrug is stable (e.g. pH 4). […] Alternatively, an assay requiring shorter incubation times would better estimate the binding affinities of the prodrugs. […] Extrapolating the stability data from Tables 3 and 4, one would expect at this time point most of the compound present in the test solution to be the prodrug.
FIGS. 1 and 2 combine the results from Biological Assay 5 with those from Biological Assay 6. The binding affinities over time of drug and prodrug pairs are shown as pIC50 together with the prodrug stability, and the pIC50 to be expected if only the drug present in the sample was responsible for the activity in the assay. Extrapolating the pIC50 from these graphs to time 0 (at which 100% of prodrug is present in the sample), the actual affinity of the drug and prodrug can be inferred. Secondly, looking at the differences between expected and real pIC50 an estimate can be made about the contribution of the prodrug to the observed activity.
Biological Assay 5.0: Equilibrium Probe Competition Assay:
Bub1 binding affinity of compounds described in the present invention were quantified using a time-resolved fluorescence energy transfer (TR-FRET) kinase binding assay which measures displacement of the synthetic fluorescent probe 5-[({2-[2-({2-[1-(4-ethoxy-2,6-difluorobenzyl)-1H-indazol-3-yl]-4-(pyridin-4-ylamino)pyrimidin-5-yl}oxy)ethoxy]ethyl}carbamothioyl)amino]-2-(6-hydroxy-3-oxo-3H-xanthen-9-yl)benzoic acid (6-5-1) by the (recombinant) catalytic domain of human Bub1 (amino acids 704-1085). The enzyme was expressed in Hi5 insect cells with N-terminal 6×His/AviTag® sequences, purified by affinity- (Ni-NTA) and size exclusion chromatography and site-specific biotinylated ex-vivo using a commercially available kit (Avidity).
In a typical assay 11 different concentrations of each compound (0.1 nM, 0.33 nM, 1.1 nM, 3.8 nM, 13 nM, 44 nM, 0.15 μM, 0.51 μM, 1.7 μM, 5.9 μM and 20 μM) were tested in duplicate within the same microtiter plate. To this end, 100-fold concentrated compound solutions (in DMSO) were made by serial dilution (1:3.4) of freshly prepared 2 mM stocks in a clear low volume 384-well source microtiter plate (Greiner Bio-One, Frickenhausen, Germany), from which 50 nl of compounds were transferred into a black low volume test microtiter plate from the same supplier. Subsequently 2 μL of a solution containing biotinylated Bub1 (the final concentration of Bub1 was adjusted depending on the activity of the enzyme lot in order to be within the linear dynamic range of the assay: typically ˜[…] were used) and 1 nM Streptavidin Terbium Cryptate (Cisbio, No. 610SATLB) in aqueous assay buffer [50 mM Tris/HCl pH 7.5, 200 mM potassium chloride (KCl), 1.0 mM dithiothreitol (DTT), 0.1 mM sodium ortho-vanadate, 1% (v/v) glycerol, 0.01% (w/v) bovine serum albumine (BSA), 0.005% (v/v) Triton X-100 (Sigma), were added to the compounds in the test plate and the mixture was incubated for 15 min at 22° C. to allow pre-equilibration of the putative enzyme-inhibitor complexes before the start of the probe competition reaction, which was initiated by the addition of 3 μL 1.67-fold concentrated solution (in assay buffer) of 6-5-1 (final concentration: 1.5 nM). The resulting mixture (5 μL final volume) was incubated at 22° C. during 0, 15, 30, 60, 120, 240 and 1440 min. […]
On the technique in general: TR-FRET usually uses a lanthanide donor and a delayed reading to cut background.

Read-outs that look alike come from different tables or passages of the source.

For `COc1cnc(-c2nn(Cc3c(F)cc(OCCO)cc3F)c3ccccc23)nc1Nc1ccnc(C)c1` [Example 2-1-2, 2-{3,5-difluoro-4-[(3-{5-methoxy-4-[(2-methylpyridin-4-yl)amino]pyrimidin-2-yl}-1H-indazol-1-yl)methyl]phenoxy}ethanol], the IC50 in assay [1] was 1300 nM; in assay [2] (Time 15 min), 1.6 nM; in assay [2] (Time 30 min), 3.5 nM; in assay [2] (Time 60 min), 2.2 nM; in assay [2] (Time 90 min) it was 3.2 nM; in assay [2] (Time 120 min), 2.9 nM. The IC50 in assay [2] (Time 240 min) came to 4 nM; in assay [2] (Time 1440 min), 2.4 nM.
With `COc1cnccc1Nc1nc(-c2nn(Cc3c(F)cc(OCCO)cc3F)c3ccccc23)ncc1OC` [Example 2-1-3, 2-{3,5-difluoro-4-[(3-{5-methoxy-4-[(3-methoxypyridin-4-yl)amino]pyrimidin-2-yl}-1H-indazol-1-yl)methyl]phenoxy}ethanol], the IC50 in assay [1] came out at 1700 nM; in assay [2] (Time 15 min), 1.7 nM; in assay [2] (Time 30 min), 1.3 nM; in assay [2] (Time 60 min) it was 0.9 nM; in assay [2] (Time 90 min), 0.54 nM; in assay [2] (Time 120 min), 0.49 nM. In addition, the results for the IC50 in assay [2] (Time 240 min) and in assay [2] (Time 1440 min) were 0.31 nM and 0.2 nM, respectively.
